Results as given in patent US20220183937A1, “METHOD FOR IMPROVING THE PERFORMANCE OF A FRAGRANCE OR A FRAGRANCE MIXTURE” (SYMRISE AG, priority 2019, published 2022).
Where a name gives a salt, the structure may show the parent alone.

Columns and labels:
[1] = LogP of fragrance raw materials
[2] = Boiling point of fragrance raw materials
[3] = physchem
[4] = Example 1, fragrances for long lasting performance, head range 1.00 a 3.00
[5] = Example 1, fragrances for long lasting performance, head range 1.00 a 230.0
[6] = Example 2, fragrances for thermo boost performance, head range 230.1 a 300.0

## CC(CC=O)c1ccccc1 (stereo not drawn) [TRIFERNAL]
[1]; [4]
  logP: 2.45
[2]; [5]
  Boiling Point: 228.4 °C

## C=CCOC(=O)COC1CCCCC1 [CYCLOGALBANAT®]
[2]; [6]
  Boiling Point: 254.9 °C

## CC(C)(CO)Cc1ccccc1 [MUGUETALCOHOL]
[2]; [6]
  Boiling Point: 260.6 °C

## CC/C=C\CCOC(C)=O [HEXENYL ACETATE CIS-3]
[2]; [5]
  Boiling Point: 176.6 °C

## CCOC(=O)CC [ETHYL PROPIONATE]
[1]
  logP: 1.36
[2]; [5]
  Boiling Point: 102.3 °C

## CC/C=C\CCOC(C)OCC (stereo not drawn) [LEAF ACETAL]
[1]; [4]
  logP: 2.95
[2]; [5]
  Boiling Point: 201.4 °C

## COc1nccnc1C(C)C [ISOPROPYL METHOXYPYRAZINE-2,3]
[2]; [5]
  Boiling Point: 217.8 °C

## CC(=O)C1CCCC(C)(C)C1 (stereo not drawn) [HERBAC]
[2]; [5]
  Boiling Point: 197.4 °C

## O=COCc1ccccc1 [BENZYL FORMATE]
[1]
  logP: 1.53
[2]; [5]
  Boiling Point: 197.8 °C

## CCCCCC1CCC(=O)O1 (stereo not drawn) [ALDEHYDE C18 SO-CALLED]
[2]; [6]
  Boiling Point: 265.5 °C

## CC/C=C\CC/C=C/C=O [NONADIENAL TRANS,CIS-2,6]
[2]; [5]
  Boiling Point: 208.7 °C

## CC(=O)c1ccc(C)cc1 [METHYL ACETOPHENONE PARA]
[1]; [4]
  logP: 2.22
[2]; [5]
  Boiling Point: 209.7 °C

## O=COCCc1ccccc1 [PHENYLETHYL FORMATE]
[1]
  logP: 2.02
[2]; [5]
  Boiling Point: 217.3 °C

## CC(=O)OC(C)c1ccccc1 (stereo not drawn) [STYRALYL ACETATE]
[2]; [5]
  Boiling Point: 223.1 °C

## CC=Cc1ccc(O)c(OC)c1 [ISOEUGENOL]
[1]
  logP: 2.65
[2]; [6]
  Boiling Point: 270.6 °C

## O=CCc1ccccc1
[1]
  logP: 1.54
[2]; [5]
  Boiling Point: 201.5 °C

## CC1(C)[C@@H]2CC[C@@]1(C)[C@H](O)C2 (racemic) [ISOBORNEOL]
[2]; [5]
  Boiling Point: 210 °C

## CCCCCC(=O)OCC [ETHYL CAPROATE]
[2]; [5]
  Boiling Point: 170.1 °C

## COC(=O)c1ccccc1 [METHYL BENZOATE]
[1]
  logP: 1.83
[2]; [5]
  Boiling Point: 195.9 °C

## COC(=O)c1ccccc1N [METHYL ANTHRANILATE (=130085), METHYL ANTHRANILATE]
[3]
  logP: 2.26
[2]; [6]
  Boiling Point: 263.6 °C

## COC(=O)c1ccccc1O [METHYL SALICYLATE PF, METHYL SALICYLATE]
[1]
  logP: 2.6
[2]; [6]
  Boiling Point: 252.2 °C

## C=CCOC(=O)COCCC(C)C [ALLYL AMYL GLYCOLATE]
[2]; [5]
  Boiling Point: 217.7 °C

## CC(=O)OCc1ccccc1 [BENZYL ACETATE]
[2]; [5]
  Boiling Point: 215.6 °C

## COc1ccc(C)cc1 [CRESYL METHYL ETHER PARA]
[2]; [5]
  Boiling Point: 170.8 °C

## CCCCCCC(C)=O [OCTANONE-2]
[2]; [5]
  Boiling Point: 163.6 °C

## COc1nccnc1CC(C)C [ISOBUTYL METHOXYPYRAZINE-3,2]
[2]; [6]
  Boiling Point: 236.5 °C

## MENTHONE/ISOMENTHONE [MENTHONE/ISOMENTHONE RAC.]
[1]; [4]
  logP: 2.87
[2]; [5]
  Boiling Point: 213 °C

## COc1cc(C=O)ccc1O [VANILLIN]
[1]
  logP: 1.05
[2]; [6]
  Boiling Point: 274.3 °C

## CC(=O)OCC=C(C)C [PRENYL ACETATE]
[1]
  logP: 2.18
[2]; [5]
  Boiling Point: 149.2 °C

## CCC/C=C/C=O [HEXENAL TRANS-2]
[1]; [4]
  logP: 1.58
[2]; [5]
  Boiling Point: 139.2 °C

## CCCCCOC(C)=O [AMYL ACETATE N]
[2]; [5]
  Boiling Point: 148.4 °C

## CCCC(=O)OCC [ETHYL BUTYRATE]
[1]
  logP: 1.85
[2]; [5]
  Boiling Point: 125.8 °C

## CC(=O)OCCC(C)C [ISOAMYL ACETATE]
[1]
  logP: 2.26
[2]; [5]
  Boiling Point: 134.9 °C

## O=Cc1ccccc1 [BE[…], BENZALDEHYDE]
[3]
  logP: 1.71
[2]; [5]
  Boiling Point: 181.2 °C

## CCOC(=O)c1ccccc1 [ETHYL BENZOATE]
[3]
  logP: 2.32
[2]; [5]
  Boiling Point: 215.6 °C

## CCOc1cc(C=O)ccc1O [ETHYL VANILLIN]
[3]
  logP: 1.55

## c1ccc2[nH]ccc2c1 [INDOLE FF, INDOLE]
[3]
  logP: 2.05
[2]; [6]
  Boiling Point: 250 °C

## CCc1occc(=O)c1O [ETHYL MALTOL]
[1]; Example 2, fragrances for thermo boost performance, head range 0.00 a 3.00
  logP: 0.3
[2]; [6]
  Boiling Point: 283.4 °C

## Cc1csc(C(C)C)n1 [ISOPROPYL METHYL THIAZOLE-2,4]
[2]; [5]
  Boiling Point: 198 °C
